Assay results: patent US5852011A, “Benzimidazole derivatives” (Mitsui Chemicals, Inc., priority 1994, dated 1998)
Where a name gives a salt, the structure may show the parent alone.

What was measured:
[1] = tested on: Colon 26 mouse colon cancer cells; assay: In vivo antitumor activity, Colon 26 subcutaneously transplanted to female CDF1 mice (Test 4); details: caudal vein, tumor weight on day 15
Protocol: Prepared was a 1×10^7 cells/ml suspension of Colon 26 mouse colon cancer cells in HBSS (Hanks' Balanced Salt Solution). A 0.1 ml portion of the cell suspension was subcutaneously transplanted to a lateroabdominal part of each female CDF1 mouse. After the body weight of the mouse was measured on the following day of the transplantation of the tumor, a solution of a compound (5% glucose solution containing 5% of "Tween 80") was administered into the caudal vein of the mouse. On day 15, a tumor was excised and its weight was measured.
The percentage of the average tumor weight of each experiment group as calculated by supposing that the average tumor weight of the control group not administered with any drug was 100% was calculated as a T/C value.
Corresponding to each compound number, its T/C value is shown. The number in parentheses indicates the concentration of the drug when the T/C value was indicated.

mouse B16 melanoma cells = assay: In vitro inhibition of proliferation of tumored cells, mouse B16 melanoma (Test 2); type: cell-based; details: 3 days in 5% CO2 at 37° C., 96-well plate
Protocol: A description will next be made of antitumor activities of these compounds. Their antitumor activities were determined by measuring their in vitro inhibition of proliferation of tumored cells. Namely, mouse B16 melanoma cells were spread over a 96-well culture plate. One day later, each drug was applied. The melanoma cells were then incubated for 3 days in 5% CO2 at 37° C. Following the method reported in Cancer Res., 48, 589-601(1988), the concentration of the drug required to induce 50% inhibition on the proliferation was determined. As a comparative example, the results obtained from the application of distamycin are also shown.

P388 leukemia cells = assay: In vivo antitumor activity, P388 leukemia intraperitoneally transplanted to female CDF1 mice (Test 3); design: species or system mouse; ILS: unit not given here; details: intraperitoneal, one, five and nine days after transplantation; for Survived After 8 weeks/Tested Animals: concentration 3 (in parentheses)
Protocol: In vivo antitumor activities of these compounds were also studied. P388 leukemia cells (10^6 cells/mouse) were intraperitoneally transplanted to female CDF1 mice. One, five and nine days later, each compound was intraperitoneally administered (at 1, 3 or 10 mg/kg) to the mice. As a blank test, 5% glucose was intraperitoneally administered at 10 ml/kg to mice. Based on the group of the mice in the blank test as a control group, the effects of the individual drugs are shown in terms of ILS. The term "ILS" is represented by the following formula: [formula]
When test animals survived 8 weeks after the administration, the number of those survived was recorded without calculation of ILS.

| SMILES | 50% Inhibition (mouse B16 melanoma cells) [µg/mL] | other results |
| --- | --- | --- |
| COc1cccc2c1C(=O)c1c(O)c3c(c(O)c1C2=O)C[C@@](O)(C(=O)CO)C[C@@H]3O[C@H]1C[C@H](N)[C@H](O)[C@H](C)O1 [Adriamycin, adriamycin, reference compound] | – | T/C ([1]; 20 mg/Kg): 40% |
| Cn1cc(NC(=O)Cc2ccc(N(CCCl)CCCl)cc2)cc1-c1nc2cc(C(=O)NCCC(=N)N)ccc2[nH]1 [Compound 2, 1H-2-[4-[2-[4-[N,N-Bis(2-chloroethyl)amino]phenyl]acetylamino]-1-methylpyrrol-2-yl]benzimidazole-5-[N-(2-amidinoethyl)]carboxamide hydrochloride] | 0.25 | ILS (P388 leukemia cells; 1 mg/kg): 59; Survived After 8 weeks/Tested Animals (P388 leukemia cells): 2/5 |
| COc1cc(C(=O)Nc2cc(-c3nc4cc(C(=O)NCCC(=N)N)ccc4[nH]3)n(C)c2)ccc1N(CCCl)CCCl [Compound 6, 1H-2-[4-[3-Methoxy-4-[N,N-bis(2-chloroethyl)amino]benzoylamino]-1-methylpyrrol-2-yl]benzimidazole-5-[N-(2-amidinoethyl)]carboxamide hydrochloride] | 0.02 | ILS (P388 leukemia cells; 1 mg/kg): 94 |
| Cn1cc(NC(=O)COc2ccc(N(CCCl)CCCl)cc2)cc1-c1nc2cc(C(=O)NCCC(=N)N)ccc2[nH]1 [Compound 13, 1H-2-[4-[4-[N,N-Bis(2-chloroethyl)amino]phenoxyacetylamino]-1-methylpyrrol-2-yl]benzimidazole-5-[N-(2-amidinoethyl)]carboxamide hydrochloride] | 0.01 | ILS (P388 leukemia cells; 1 mg/kg): 123; Survived After 8 weeks/Tested Animals (P388 leukemia cells): 3/5 |
| Cn1cc(NC(=O)c2ccccc2N(CCCl)CCCl)cc1-c1nc2cc(C(=O)NCCC(=N)N)ccc2[nH]1 [Compound 305, 1H-2-[4-[2-[N,N-Bis(2-chloroethyl)amino]benzoylamino]-1-methylpyrrol-2-yl)benzimidazole-5-[N-(2-amidinoethyl)]carboxamide hydrochloride] | 4.2 | ILS (P388 leukemia cells; 10 mg/kg): 22 |
| Cn1cc(NC(=O)c2cc(N(CCCl)CCCl)cc(N(CCCl)CCCl)c2)cc1-c1nc2cc(C(=O)NCCC(=N)N)ccc2[nH]1 [Compound 310, 1H-2-[4-[3,5-Bis[N,N-bis(2-chloroethyl)amino]benzoylamino]-1-methylpyrrol-2-yl]benzimidazole-5-[N-(2-amidinoethyl)]carboxamide hydrochloride] | 0.76 | ILS (P388 leukemia cells; 1 mg/kg): 88 |
| Cn1cc(NC(=O)CNC(=N)N)cc1-c1nc2cc(C(=O)NCCc3ccc(N(CCCl)CCCl)cc3)ccc2[nH]1 [Compound 1003, 1H-2-[4-(2-Guanidinoacetylamino)-1-methylpyrrol-2-yl]benzimidazole-5-[N-[2-[4-[N,N-bis(2-chloroethyl)amino]phenyl]ethyl]]carboxamide hydrochloride] | 0.018 | T/C ([1]; 0.3 mg/Kg): 41% |
| Cc1cc(NC(=O)c2ccc3[nH]c(-c4cc(NC(=O)CCCN(C)C)cn4C)nc3c2)ccc1N(CCCl)CCCl [Compound 1260, 1H-2-[1-Methyl-4-[4-(N,N-dimethylamino)butyrylamino]pyrrol-2-yl]benzimidazole-5-[N-[3-methyl-4-[N,N-bis(2-chloroethyl)amino]phenyl]]carboxamide dihydrochloride] | 3.1 | – |
| Cn1cc(NC(=O)c2ccc[nH]2)cc1-c1nc2cc(C(=O)Nc3ccc(N(CCCl)CCCl)cc3)ccc2[nH]1 [Compound 1480, 1H-2-[1-Methyl-4-(2-pyrrolcarboxamido)pyrrol-2-yl]benzimidazole-5-[N-[4-[N,N-bis(2-chloroethyl)amino]phenyl]]carboxamide hydrochloride] | 0.16 | – |
| Cn1cc(NC(=O)CCCN)cc1-c1nc2cc(C(=O)Nc3ccc(N(CCCl)CCCl)cc3)ccc2[nH]1 [Compound 1488, 1H-2-[4-(4-aminobuturylamino)-1-methylpyrrol-2-yl]benzimidazole-5-[N-[4-[N,N-bis(2-chloroethyl)amino]phenyl]]carboxamide] | 2.85 | – |
| CSCCC(=O)Nc1cc(-c2nc3cc(C(=O)Nc4ccc(N(CCCl)CCCl)cc4)ccc3[nH]2)n(C)c1 [Compound 1520, 1H-2-[1-Methyl-4-[3-(methylthio)propionylamino]pyrrol-2-yl]benzimidazole-5-[N-[4-[N,N-bis(2-chloroethyl)amino]phenyl]]carboxamide] | 0.33 | – |
| CSCCC(=O)Nc1cc(-c2nc3cc(C(=O)Nc4ccc(N(CCCl)CCCl)c(C)c4)ccc3[nH]2)n(C)c1 [Compound 1524, 1H-2-[1-Methyl-4-[3-(methylthio)propionylamino]pyrrol-2-yl]benzimidazole-5-[N-[3-methyl-4-[N,N-bis(2-chloroethyl)amino]phenyl]]carboxamide] | 0.6 | – |
| CSCCC(=O)Nc1cc(-c2nc3cc(C(=O)Nc4ccc(N(CCCl)CCCl)c(F)c4)ccc3[nH]2)n(C)c1 [Compound 1528, 1H-2-[1-Methyl-4-[3-(methylthio)propionylamino]pyrrol-2-yl]benzimidazole-5-[N-[3-fluoro-4-[N,N-bis(2-chloroethyl)amino]phenyl]]carboxamide] | 0.22 | – |
| Cn1cc(NC(=O)N2CCOCC2)cc1-c1nc2cc(C(=O)Nc3ccc(N(CCCl)CCCl)cc3)ccc2[nH]1 [Compound 1536, 1H-2-[1-Methyl-4-(4-morpholinecarbonyl)aminopyrrol-2-yl]benzimidazole-5-[N-[4-[N,N-bis(2-chloroethyl)amino]phenyl]]carboxamide] | 0.53 | – |
| Cn1cc(NC(=O)CN2CCN(Cc3ccccc3)CC2)cc1-c1nc2cc(C(=O)Nc3ccc(N(CCCl)CCCl)cc3)ccc2[nH]1 [Compound 1585, 1H-2-[1-Methyl-4-[(4-benzylpiperazinyl)acetylamino]pyrrol-2-yl]benzimidazole-5-[N-[4-[N,N-bis(2-chloroethyl)amino]phenyl]]carboxamide] | 0.1 | – |
| Cn1cc(NC(=O)CCn2ccnc2)cc1-c1nc2cc(C(=O)Nc3ccc(N(CCCl)CCCl)cc3)ccc2[nH]1 [Compound 1589, 1H-2-[1-Methyl-4-[[3-(imidazol-1-yl)propionyl]amino]pyrrol-2-yl]benzimidazole-5-[N-[4-[N,N-bis(2-chloroethyl)]amino]phenyl]carboxamide] | 0.41 | – |
| Cn1cc(NC(=O)c2ncc[nH]2)cc1-c1nc2cc(C(=O)Nc3ccc(N(CCCl)CCCl)cc3)ccc2[nH]1 [Compound 1590, 1H-2-[1-Methyl-4-[2-imidazolylcarboxamido)-pyrrol-2-yl]benzimidazole-5-[N-[4-[N,N-bis(2-chloroethyl)amino]phenyl]]carboxamide] | 0.53 | – |
| Cn1cc(NC(=O)CNC(=N)N)cc1-c1nc2cc(C(=O)NCCCC(=O)Nc3ccc(N(CCCl)CCCl)cc3)ccc2[nH]1 [Compound 1592, 1H-2-[4-(Guanidinoacetyl)amino-1-methylpyrrol-2-yl]benzimidazole-5-[N-[3-[N-[4-[N,N-bis(2-chloroethyl)amino]phenyl]carboxamido]propyl]]carboxamide hydrochloride] | 0.61 | – |
| N=C(N)NCC(=O)Nc1cc(-c2nc3cc(C(=O)Nc4ccc(N(CCCl)CCCl)cc4)ccc3[nH]2)cs1 [Compound 1617, 1H-2-[5-(Guanidinoacetyl)aminothiophen-3-yl]benzimidazole-5-[N-[4-[N,N-bis(2-chloroethyl)amino]phenyl]]carboxamide dihydrochloride] | 0.12 | – |
| Cn1cc(NC(=O)c2ccc(N(CCCl)CCCl)cc2)cc1-c1nc2cc(C(=O)Nc3ccc(N(CCCl)CCCl)cc3)ccc2[nH]1 [Compound 2001, 1H-2-[4-[4-[N,N-Bis(2-chloroethyl)amino]benzoylamino]-1-methylpyrrol-2-yl]benzimidazole-5-[N-[4-[N,N-bis(2-chloroethyl)amino]phenyl]]carboxamide] | 0.005 | ILS (P388 leukemia cells; 10 mg/kg): 47 |
| CCN(CCCl)c1ccc(NC(=O)c2ccc3[nH]c(-c4cc(NC(=O)c5ccc(N(CC)CCCl)cc5)cn4C)nc3c2)cc1.Cl [Compound 2089, 1H-2-[1-Methyl-4-[4-[N-ethyl,N-(2-chloroethyl)amino]benzoylamino]pyrrol-2-yl]benzimidazole-5-[N-[4-[N-ethyl,N-(2-chloroethyl)amino]phenyl]]carboxamidehydrochloride] | 0.0057 | – |
